In publication PMC3832545 (PLoS ONE, 2013):

Experiments:
MC38 cells = test: MTT cell proliferation assay, MC38 cells; format: cell-based, mouse; conditions: 24 h, 0.25% (v/v) serum, 0.001 to 1000 nM, three independent experiments with four replicates
Method: Effect of test compounds on proliferation was assessed with 3-(4,5-dimethylthiazol-2-yl)-2,5-diphenyl tetrazolium bromide (MTT) assays, essentially as described previously. In brief, MC38 cells were plated in 96-well plates (5,000 cells per well) in growth medium. […] Data for relative cell numbers from the three repeated experiments, each with four replicate samples per condition, were then used to fit dose-response curves using GraphPad Prism version 6.0 (GraphPad Software Inc., La Jolla, CA, USA). Cell proliferation experiments were done with MCF-7 cells as described for MC38 cells, except that 20,000 cells were plated per well. See Materials S1 and Figure S1 for detailed supplementary information regarding cell proliferation experiments.
In initial tests the association between number of cells and absorbance at 570 nm measured in an MTT assay was examined after incubation of MC38 cells with MTT for 3 h, 3 h after plating different number of cells per well, i.e., the total incubation period was 6 h. As expected there was a highly linear relationship between absolute number of cells and the measured absorbance (Figure S1). […] After incubation for 1 day cells were rinsed in PBS (room temperature) and then starvation medium was added. […] Control samples were treated with starvation medium only. After treatment for 21 h, 10 µl stock solution of MTT dissolved in PBS (5.0 mg/ml) was added to each well, and incubation was continued for 3 h so treatment with test compounds in total lasted 24 h. At the end of the treatment period medium with test compounds was removed and formazan crystals were suspended by adding 100 µl 0.04 M HCl dissolved in isopropanol to each well and absorbance was thereafter read at 570 nm using a Emax PC plate reader (Molecular Devices LLC, Sunnyvale, CA, USA). Each treatment was done with four replicate samples and three independent experiments were performed. In each experiment the absorbance was normalized to the mean absorbance in the untreated control samples. […]

[1] = Blood glucose (pharmacodynamics) after sc injection in DIO-mice; format: in vivo, mouse; conditions: 600 nmol/kg sc, n = 8
From the text: Blood was collected by puncture of the saphenous vein and blood glucose measured using a OneTouch Ultra Glucometer (LifeScan, Inc., Milpitas, CA, USA).

[2] = system: PI3K signalling pathway in MC38 cell allografts; test: Signalling in MC38 tumor allografts in vivo, Western blot; parameters: species or system mouse; conditions: MC38 tumor allografts collected 1 h after sc administration, DIO-mice
Method: We focused on different endpoints in these animal experiments and monitored tumor growth in all experiments, see Table 1. The animal experiments were performed as described recently. […] Animal care and treatments were conducted in accordance with established guidelines and protocols approved by the Lady Davis Institute (protocol # 5951) and McGill University's Animal Ethics Committee. Mice were housed one mouse per cage with ad libitum access to tap water and high- or low fat diet, respectively, throughout the studies. The temperature in the animal rooms was maintained at 20-25°C with a light/dark cycle of 14/10 hours. Mice were acclimatized for 7-10 days before experimental procedures were initiated. At experimental day 0, 2.0×10^5 (experiment A) or 5.0×10^5 (all other experiments) MC38 cells, suspended in 100 μl phosphate-buffered saline (PBS), were injected subcutaneously (sc) in the right flank of the mice. […] The size of the tumor allografts was measured three times per week and the volume calculated using the following formula: length × width^2 × 0.52. Based on the tumor volume data for each mouse, we calculated the area under the tumor growth curves (tumor growth AUC). At termination of the experiments, mice were anesthetized with isoflurane. […] Incubation with secondary antibody (horse radish peroxidase-conjugated goat anti-rabbit IgG (Santa-Cruz Biotechnology, Santa Cruz, CA, USA, cat. no 5401) and visualization of protein bands was done as described previously. The intensity of protein bands was quantified using the software ImagePro (BioRad). In each cell signalling experiment, band intensities were normalized to the mean of the vehicle-treated samples. IR and IGF-1R bands in the liver, muscle colon and MC38 cell allografts were normalized to mean band intensities in liver and muscle samples, respectively.

Substance	Ranking according to mitogenic potency (MTT assay) (MC38 cells)	Effect on blood glucose [1]	Time until blood glucose returned to basal levels [1]	Activation of Akt, p70S6K and mTOR in tumor allografts [2]
human insulin [HI]	X10≥IGF-1>HI	rapidly lowered blood glucose	3 to 4 h	pronounced activation
IGF-1: recombinant human IGF-1 (Increlex, IPSEN Pharma GmbH)	X10≥IGF-1>HI	rapidly lowered blood glucose	3 to 4 h	pronounced activation
insulin analog B10Asp [X10]	X10≥IGF-1>HI	rapidly lowered blood glucose	3 to 4 h	pronounced activation
